Structures are written as SMILES.

The record followed here is US20080153794A1, “Medicaments and methods for wound healing” (RENOVO LIMITED, priority 2006, published 2008).

The subject of assay [1] is full thickness excisional wounds (punch biopsies). The assay is described as follows: Rat full thickness excisional wound model (study 3): re-epithelialisation at test concentrations, injection 20 minutes before wounding. The format is in vivo, adult male Sprague-Dawley rats. Particulars: intradermal 20 minutes before wounding, day 3, five rats. From the text:
Animals were killed, and their wounds harvested, three days after wounding. The wounds were excised and treated for histology. […] All histological assessments of early wound healing events were made using preserved 5 micron-thickness wound sections taken from the widest part of each excised biopsy site. Sections were stained with Haematoxylin and Eosin to aid visualisation of structural features, and measurements made using image analysis software. The distance traveled by the epithelium is derived from two histological measurements: the freehand total wound diameter and the freehand non-epithelialised wound diameter. The non-epithelialised diameter is subtracted from the total wound diameter, to determine the distance which the new epithelium has covered since the time of wounding. Percentage re-epithelialisation for the new epithelium was calculated as a proportion of the total wound diameter. The average percentage re-epithelialisation value was calculated from the wounds of the […] within each treatment group. […] 100 μl of the medicament to be tested was administered by intradermal injection at sites on the dorsal surface of experimental rats, 20 minutes prior to formation of a full thickness punch biopsy at the injected site. One injection and excisional wound was made per animal, and five adult male Sprague-Dawley rats used per treatment group. Acceleration of wound healing achieved using the test concentrations of the medicaments of the invention was investigated using the protocols set out under 1.1.4 above.

The next assay relates to partial thickness wounds. The assay is described as follows: Pig partial thickness wound healing model (model of split thickness skin graft donor sites). Conditions: 100 μl per cm^2 intradermal, five days after wounding, four pigs. Type of assay: in vivo, male Large White pigs. On the procedure:
Test medicaments were administered by intradermal injection to provide 100 μl of medicament per cm^2 to sites on experimental pigs where wounds were to be formed. Thus a total volume of 625 μl of the test medicament was administered per wound site. After administration of the medicaments 2.5 cm by 2.5 cm (6.25 cm^2) partial thickness wounds were made using a 25 mm dermatome (Nouvag) at a depth setting of 0.55 mm. A single wound was treated per animal, and each treatment group comprised four male Large White pigs. Animals were killed, and their wounds harvested, five days after wounding. The wounds were excised and treated for histology. […] After being allowed fixed for 48 hours wounded tissue was bisected into four even sections. All bisected sections were processed to wax and embedded into individual wax blocks. Tissue was sectioned through to the end of the block where at every 250 μm, a single slide containing a 5 μm thick section was prepared. […] For each section, the freehand epithelialised and freehand non-epithelialised distances were measured using image analysis; freehand epithelialised distance as a proportion of the sum of the epithelialised and non-epithelialised distances was calculated to produce a percentage re-epithelialisation value. Average percentage re-epithelialisation values were calculated per wound and per treatment group.

Assay [2] concerns full thickness cutaneous excisional wounds (punch biopsies). As to the kind of experiment: Human 3 mm punch biopsy wounds: re-epithelialisation. Type of assay: in vivo, humans. Particulars: single 100 μl intradermal dose 10-30 minutes before wounding, day 3, 44 wounds. On the procedure: Medicaments of the invention were prepared using the constituents described above. […] 44 healthy subjects were recruited to the study, of whom, 40 were healthy males (aged 18-75 years) and 4 were post-menopausal females (aged 53-69 years). The average age of subjects recruited to this study was 42 years. The post-menopausal status of female subjects was confirmed by quantification of serum levels of oestradiol and follicle stimulating hormone (FSH). Serum levels of oestradiol were required to be […], and follicle stimulating hormone levels >31 IU/L. Each subject had four wounds treated with active drug, one corresponding to each of four concentrations of the medicaments produced. The test medicaments were each administered intradermally as a single dose at a volume of 100 μl (sufficient to treat 1 cm^2 of skin) per wound site (the upper, inner aspect of each arm), 10-30 minutes before wounding. Subjects received 3 mm punch biopsies at the sites where the medicaments had been administered. After wounding, all sites received moist wound healing dressings (Standard Care). Biopsy sites were excised, using a 5 mm punch biopsy, three days after wounding. […] Percentage re-epithelialisation for the new epithelium was calculated as a proportion of the total wound diameter. The average percentage re-epithelialisation value was calculated from the 44 wounds of each treatment group.

The mark [3] stands for this setting: 0.1 μg 17β-oestradiol/100 μl of medicament (0.0001% w/v).

Consider `C[C@]12CC[C@@H]3c4ccc(O)cc4CC[C@H]3[C@@H]1CC[C@@H]2O` [17β-oestradiol], for which the re-epithelialisation in assay [1] (0.001 μg 17β-oestradiol/100 μl of medicament (0.000001% w/v)) turned out to be 23.02%; in assay [1] (0.01 μg 17β-oestradiol/100 μl of medicament (0.00001% w/v)), 29.03%; in assay [1] (setting [3]) it was 29.95%; in assay [1] (1 μg 17β-oestradiol/100 μl of medicament (0.001% w/v)), 14.63%; in assay [1] (10 μg 17β-oestradiol/100 μl of medicament (0.01% w/v)), 10.30%; with partial thickness wounds (0.1 μg 17β-oestradiol/100 μl of medicament) it was 98.15%. The same molecule had a re-epithelialisation in the assay on partial thickness wounds (0.2 μg 17β-oestradiol/100 μl of medicament) of 98.56%. Moreover, the “acceleration of re-epithelialisation (in words)” value in assay [2] (setting [3]) and in assay [2] (0.2 μg 17β-oestradiol/100 μl of medicament (0.0002% w/v)) was “particularly preferable ability to induce acceleration of re-epithelialisation” each time.
